Experimental data from publication PMC4253628, “Antiviral effects against EV71 of pimprinine and its derivatives isolated from Streptomyces sp” (Virology Journal, 2014).

How the values were obtained:
CVB3 [1] = experiment: Virus yield reduction assay, CVB3; format: cell-based, Coxsackievirus B3; conditions: Hep-2 cells, — = less than 90% inhibition
H1N1 [2] = experiment: Inhibition of H1N1-induced CPE in MDCK cells; format: cell-based, influenza virus A/human/Hubei/86/2009 (H1N1)
[3] = Cytotoxicity, MTT method, Hep-2 cells; format: cell-based; conditions: human, uninfected Hep-2 cells; host cells of CVB3: Hep-2, MTT, 48 h; read-out: CC50 (CVB3)
Protocol: (§1) The 50% cell cytotoxic concentrations (CC50s) of compounds were calculated using SPSS software. SI were calculated from the ratio of CC50: EC50.

HSV-1 [4] = experiment: Plaque reduction assay, HSV-1 in Hep-2 cells; conditions: for EC50: Human alphaherpesvirus 1, HEp-2, read-out: EC50 HSV-1
Protocol: Confluent monolayers of Hep-2 cells, seeded in a 24-well plate, were infected with HSV-1 at a density of 60–80 plaque-forming units (PFU) per well and treated with media (pre-warmed DMEM containing 2% FBS, 0.8% low-melting agarose) mixed with or without the serially diluted tested compounds for the periods indicated following different procedures. The cells were incubated at 37°C until plaques appeared, followed by fixing with 10% formaldehyde and staining with 0.5% crystal violet. The plaques were counted by visual examination. The ratio of the number of plaques in the treated group to that in the untreated control was calculated.
A plaque reduction assay was performed to measure the inhibitory effects of the test compounds against HSV-1 infection.

[5] = set-up: method as in PMID 11377760; conditions: in vivo, 80 mg/kg; cited from earlier work
HSV-1 [6] = experiment: Virus yield reduction assay, HSV-1; format: cell-based, herpes simplex virus 1; conditions: Hep-2 cells; — = less than 90% inhibition
EV71 [7] = experiment: Dependence of anti-EV71 activity on virus inoculum (cell viability, MTT) in RD cells; format: cell-based, Enterovirus 71; conditions: for anti-EV71 inhibition at excessive virus inoculum: virus concentration above 10^4 TCID50
[8] = Cytotoxicity, MTT method, HeLa cells; format: cell-based; conditions: human, uninfected HeLa cells; host cells of ADV-7: HeLa, MTT, 48 h; read-out: CC50 (ADV-7)
Protocol: as §1

[9] = Cytotoxicity, ATPLite luminescence-based assay, RD cells; format: cell-based; conditions: human
Source text: (§2) The ATPLite assay may be more sensitive to cytotoxicity than the MTT method. For RD and Hep-2 cells, similar results were obtained, and for HeLa and MDCK cells, the values of CC50 from the ATPLite assay were smaller than those from MTT assays (Tables 1, 2 and 3).

[10] = Cytotoxicity, ATPLite luminescence-based assay, Hep-2 cells; format: cell-based; conditions: human
Source text: as §2

[11] = Cytotoxicity, MTT method, uninfected RD cells; format: cell-based; conditions: human; RD cells, MTT, 48 h; mean ± SD of three experiments; read-out: CC50, compound concentration required to reduce cell viability by 50%
Protocol: as §1

ADV-7 [12] = experiment: Inhibition of ADV-7-induced CPE in HeLa cells; conditions: for SI ADV-7, ratio CC50/EC50: HeLa cells; for EC50: Human mastadenovirus B, HeLa, 48 h, read-out: EC50 ADV-7
Protocol: (§3) Cell viability was assessed by an MTT assay, which functions based on the reduction of a MTT into formazan dye by active mitochondria. The cells were treated with 100 μL of MTT (1 mg/mL, Sigma) and incubated at 37°C for 4 h. The reaction was blocked by DMSO and measured in a microplate reader (Bio-Tek Instruments) at 492 nm. The untreated control was arbitrarily set as 100%.
(§4) Confluent cell monolayers in 96-well dishes were infected with 100 TCID50 of corresponding virus dilution mixed with serial dilutions of tested compounds for 1 h at 37°C. Inocula were aspirated and the cells were then incubated with various concentrations of DMEM/tested compounds at 37°C, 5% CO2 for 48 h. CPE were observed microscopically and the viability of the cells was determined using MTT assays. […] The concentrations required for the tested compounds to achieve 50% protection of cells from virus-induced CPE were determined.

[13] = Cytotoxicity, ATPLite luminescence-based assay, MDCK cells; format: cell-based, canine; conditions: dog
Source text: as §2

EV71 [14] = experiment: microbe, parasite or virus in culture; conditions: Enterovirus A, EV71, RD, 48 h, read-out: EC50, compound concentration required to achieve 50% protection from virus-induced cytopathogenicity
Protocol: as §3, §4

H1N1 [15] = experiment: Virus yield reduction assay, H1N1; format: cell-based, influenza virus A/human/Hubei/86/2009 (H1N1); conditions: MDCK cells; — = less than 90% inhibition
Protocol: Virus yield reduction assays were also carried out to evaluate further the protective effects of the tested compounds.
The virus suspension, serially diluted 10-fold with DMEM containing 2% FBS, was inoculated to cells in a 96-well plate. After 1 h incubation at 37°C in 5% CO2, unbinding virus was washed out and DMEM maintenance medium supplemented with 2% FBS was added to the cells. After 2 days, the infected cells were monitored for cytopathic effects (CPEs). The virus titer was calculated by the Reed–Muench method.

EV71 [16] = conditions: EV71, RD cells
Protocol: as §3, §4

[17] = Cytotoxicity, ATPLite luminescence-based assay, HeLa cells; format: cell-based; conditions: human
Source text: as §2

[18] = Cytotoxicity, MTT method, MDCK cells; format: cell-based, canine; conditions: dog, uninfected MDCK cells, host cells of H1N1: MDCK
Protocol: as §1

ADV-7 [19] = experiment: Virus yield reduction assay, ADV-7; format: cell-based, adenovirus 7; conditions: Human mastadenovirus B; HeLa cells; read-out: EC90 ADV-7, concentration required to inhibit 90% virus yield
EV71 [20] = experiment: Progeny virus yield reduction, EV71 in RD cells; format: cell-based, Enterovirus 71; conditions: for reduction in progeny virus titers relative to virus control: 80 μM, 100 TCID50 EV71, RD cells, 10 h; for EC90: Enterovirus A, EV71, RD cells, progeny viral yield, read-out: EC90, compound concentration required to achieve 90% virus yield reduction
CVB3 [21] = experiment: Inhibition of CVB3-induced CPE in Hep-2 cells; conditions: for EC50: Enterovirus B, CVB3, HEp-2, 48 h, read-out: EC50 CVB3; for SI CVB3, ratio CC50/EC50: Hep-2 cells
Protocol: as §3, §4

EV71 [22] = experiment: Release analysis, EV71 from RD cells; format: cell-based, Enterovirus 71; conditions: 80 μM pimprinethine, 40 μM WS-30581 A or B; 12 h p.i.
EV71 [23] = experiment: Effective stage analysis, EV71 in RD cells; format: cell-based, Enterovirus 71; conditions: 48 h
EV71 [24] = experiment: Adsorption analysis, EV71 on RD cells; format: cell-based, Enterovirus 71; conditions: 160 μM pimprinethine, 80 μM WS-30581 A, 80 μM WS-30581 B; EV71 10^4 TCID50; 2 h adsorption
EV71 [25] = experiment: Virucidal activity against EV71; format: cell-based, Enterovirus 71; conditions: 80 μM pimprinethine, 40 μM WS-30581 A or 40 μM WS-30581 B; 24 h at 4°C; 10^3 TCID50
[26] = set-up: method as in PMID 6501088; conditions: ddY mice, intraperitoneal injection; cited from earlier work

Row | Compound | inhibition of H1N1 infection (H1N1 [2]; MDCK cells) | CC50 at 48 h [3] [µM] | SI HSV-1, ratio CC50/EC50 (HSV-1 [4]; Hep-2 cells) | EC50 (HSV-1 [4]) [µM] | EC90 HSV-1, concentration required to inhibit 90% virus yield (HSV-1 [6]) | anti-EV71 inhibition at excessive virus inoculum (EV71 [7]) | CC50 at 48 h [8] [µM] | CC50 [9] [µM] | CC50 at 48 h [11] [µM] | SI ADV-7, ratio CC50/EC50 (ADV-7 [12]) | EC50 (ADV-7 [12]) [µM] | EC50 (EV71 [14]) [µM] | EC90 H1N1, concentration required to inhibit 90% virus yield (H1N1 [15]) | SI (selectivity index), ratio CC50/EC50 (EV71 [16]) | CC50 at 48 h [18] [µM] | EC90 (ADV-7 [19]) [µM] | reduction in progeny virus titers relative to virus control (EV71 [20]) | EC90 (EV71 [20]) [µM] | EC50 (CVB3 [21]) [µM] | SI CVB3, ratio CC50/EC50 (CVB3 [21]) | other results
1 | Cc1ncc(-c2c[nH]c3ccccc23)o1 [Pimprinine, 5, 30-indolyl-2-methyloxazole] | negligible measurable inhibition | 443 ± 35 | 3 | 160 ± 18 | — (—, less than 50% or 90% inhibition) | no inhibition observed | 1140 ± 181 | 1260 ± 247 | 1460 ± 27 | 8 | 150 ± 10 | 89 ± 18 | — (—, less than 50% or 90% inhibition) | 16 | 899 ± 56 | 266 ± 14 | approximately 0.5 log | 149 ± 12 | 95 ± 16 | 5 | EC90 CVB3, concentration required to inhibit 90% virus yield (CVB3 [1]): —^f (—, less than 50% or 90% inhibition); EC50 H1N1 (H1N1 [2]; MDCK cells, 100 TCID50, 48 h, CPE, — = less than 50% inhibition): — (—, less than 50% or 90% inhibition); protection against electrically induced convulsions [5]: significant protection; viability at 10 µM (EV71 [7]; Enterovirus A, 10 μM, 10^4 TCID50 EV71, 48 h pi): 7%; viability at 20 µM (EV71 [7]; Enterovirus A, 20 μM, 10^4 TCID50 EV71, 48 h pi): 19%; viability at 40 µM (EV71 [7]; Enterovirus A, 40 μM, 10^4 TCID50 EV71, 48 h pi): 16%; viability at 80 µM (EV71 [7]; Enterovirus A, 80 μM, 10^4 TCID50 EV71, 48 h pi): 22%; viability at 160 µM (EV71 [7]; Enterovirus A, 160 μM, 10^4 TCID50 EV71, 48 h pi): 28%; CC50 [10]: 403 ± 53 µM; CC50 [13]: 649 ± 77 µM; CC50 [17]: 940 ± 219 µM
2 | CCCc1ncc(-c2c[nH]c3ccccc23)o1 [WS-30581 A] | less than 70% | 72 ± 8 | 4 | 18 ± 2 | — (—, less than 50% or 90% inhibition) | Inhibition was eliminated | 217 ± 4 | 313 ± 49 | 363 ± 13 | 13 | 17 ± 18 | 16 ± 1 | — (—, less than 50% or 90% inhibition) | 23 | 212 ± 18 | 43 ± 3 | 3.0 log | 26 ± 6 | 14 ± 4 | 5 | EC90 (CVB3 [1]; Enterovirus B, CVB3, read-out: EC90 CVB3, concentration required to inhibit 90% virus yield): 39 ± 4 µM; EC50 (H1N1 [2]; Influenza A virus, H1N1, MDCK, 48 h, read-out: EC50 H1N1): 38 ± 7 µM; SI H1N1, ratio CC50/EC50 (H1N1 [2]; MDCK cells): 6; inhibition of HSV-1-induced plaque formation (HSV-1 [4]; inhibition achievable, Hep-2 cells): approximately 80%; release of EV71 from RD cells (EV71 [22]): unaffected; virus titer reduction vs untreated cells (EV71 [23]; 80 μM, added post infection, EV71 100 TCID50): approximately 5.0 log; viability at 80 µM (EV71 [23]; Enterovirus A, RD, added post infection (therapeutic), EV71 100 TCID50, read-out: viability rates of the infected cells): ~100%; virus titer during virus attachment (adsorption) (EV71 [24]): no significant decrease; virus titers of EV71 mixture with vs without compound (virucidal activity) (EV71 [25]): No significant difference; acute toxicity [26]: above 250 mg/kg
